Literature values, collected in PMC4054929 (Bioorganic & medicinal chemistry, 2014).

System: PDE10A
Conditions: unlabeled compounds; cited from earlier work

COc1cc2ccccc2nc1COc1ccc(-c2nn(C)cc2-c2ccncc2)cc1 [Compound 1]
IC50: 0.4 ± 0.02 nM

COc1cc(COc2ccc(-c3nn(C)cc3-c3ccncc3)cc2)nc2ccccc12 [Compound 2]
IC50: 0.28 ± 0.06 nM

COc1ccc2nc(COc3ccc(-c4nn(C)cc4-c4ccncc4)cc3)ccc2c1 [Compound 3]
IC50: 1.82 ± 0.25 nM
